What was measured:
[1] = Highest frequency of moderate liver toxicity observed during clinical trials, expressed as a percentage. [column '% BIOL' in source]; conditions: human
[2] = Highest frequency of acute liver toxicity observed during clinical trials, expressed as a percentage. [column '% AIGUE' in source]; conditions: human
[3] = Comments (NB not yet translated). [column 'COMMENTAIRES' in source]; conditions: human
[4] = Times to onset, minimal and maximal, observed in the indexed observations. [column 'DELAI' in source]; conditions: human
[5] = human, serum
[6] = human, serum; remark: listed apart in the source
[7] = human
[8] = human; remark: listed apart in the source
[9] = human; remark: listed apart in the source
[10] = human, serum, 4383 h
[11] = human; remark: listed apart in the source
[12] = human; remark: listed apart in the source
[13] = human; remark: listed apart in the source
[14] = human; remark: listed apart in the source
[15] = human; remark: listed apart in the source
[16] = human; remark: listed apart in the source
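Wherever Hepatotoxicity (association with vascular disease) is given: count of indexed literature references reporting vascular liver injury in humans, e.g. peliosis hepatitis, hepatic veno-occlusive disease or Budd-Chiari syndrome.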
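Wherever Hepatotoxicity (benign tumour) is given: value is a count of indexed literature references citing a benign tumour confirmed by histopathology.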
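Wherever Hepatotoxicity (choleostasis) is given: human cholestatic liver injury, shown by histopathology or by peak ALT or AST elevation over alkaline phosphatase ratio below 2, value counts indexed literature reports.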
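Wherever Hepatotoxicity (chronic liver disease) is given: chronic liver injury confirmed by histopathology or persistently raised serum aminotransferase activity beyond 6 months, value given as the count of indexed literature references.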
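Wherever Hepatotoxicity (cirrhosis) is given: value is a count of indexed literature references reporting cirrhosis confirmed by histopathology.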
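Wherever Hepatotoxicity (cytolytic) is given: human cytolytic liver injury, shown by histopathology or by a ratio above 5 of peak ALT or AST elevation to alkaline phosphatase elevation, value counts indexed references.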
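Wherever Hepatotoxicity (granulomatous hepatitis) is given: value is a count of indexed literature references reporting granulomatous liver disease confirmed by histopathology.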
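Wherever Hepatotoxicity (malignant tumour) is given: malignant tumour confirmed by histopathology, value gives the count of indexed literature references reporting it.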
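Wherever Hepatotoxicity (severe hepatitis) is given: human clinical data: severe hepatitis, meaning potentially life-threatening liver failure or clinically observed cases, the value counts how many indexed literature references report it.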
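Wherever Hepatotoxicity (steatosis) is given: steatosis confirmed by histopathology, value is the count of indexed references.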

SMILES	Hepatotoxicity (moderate) [1] [%]	Hepatotoxicity (acute) [2] [%]	Hepatotoxicity (comment) [3]	Hepatotoxicity (time to onset) [4]	Hepatotoxicity (moderate) [5]	Hepatotoxicity (acute) [6]	Hepatotoxicity (cytolytic) [7]	Hepatotoxicity (choleostasis) [8]	Hepatotoxicity (severe hepatitis) [9]	Hepatotoxicity (chronic liver disease) [10]	Hepatotoxicity (cirrhosis) [11]	Hepatotoxicity (granulomatous hepatitis) [12]	Hepatotoxicity (association with vascular disease) [13]	Hepatotoxicity (steatosis) [14]	Hepatotoxicity (malignant tumour) [15]	Hepatotoxicity (benign tumour) [16]	other results
CCOc1nc2cccc(C(=O)O)c2n1Cc1ccc(-c2ccccc2-c2nnn[nH]2)cc1	2.4	0	DUCTOPENIE	2 weeks - 5.5 months	3	2	3	0	1	0	0	0	0	1	0	0	
O=c1cc(Cc2ccccc2)[nH]c(=S)[nH]1 [BENZYLTHIOURACIL]	0	0	RC/CARBIMAZOLE	1 month - 2 months	1	1	0	1	0	0	0	0	0	0	0	0	
Cc1nc2n(c(=O)c1CCN1CCC(c3noc4cc(F)ccc34)CC1)CCCC2 [RISPERIDONE]	6	4	PERICHOLANGITE HYPERBILIRUBINEMIE	2 days - 1 year	4	6	5	2	0	0	0	0	0	4	0	0	
CC(Cc1ccccc1)NN (stereo not given) [PHENIPRAZINE]	0	0	RC/NIALAMIDE/IPRONIAZIDE	2 weeks - 7 months	0	7	7	0	5	0	0	0	0	0	0	0	
CSc1ccc2c(c1)N(CCC1CCCCN1C)c1ccccc1S2 (stereo not given) [THIORIDAZINE]			RC/CHLORPROMAZINE	1 week - 1 year	2	5	2	5		1	0	0	0	0	0	0	Hepatotoxicity (moderate) ([1]; Liver): 0%; Hepatotoxicity (acute) ([2]; Liver): 0%; Hepatotoxicity (severe hepatitis) ([9]; Liver): 1
CCN1CCCC1CNC(=O)c1cc(S(N)(=O)=O)ccc1OC (stereo not given) [SULPIRIDE]	4	0	DUCTOPENIE	1 week - 3 months	3	3	0	1	1	0	0	0	0	0	0	0	
CCCCC1C(=O)N(c2ccccc2)N(c2ccc(O)cc2)C1=O (stereo not given) [OXYPHENBUTAZONE ANHYDROUS]	0	0	RC/PHENYLBUTAZONE	1 week - 2 months	3	9	4	3	3	0	1	5	0	1	0	0	
O=C1CCC(N2C(=O)c3ccccc3C2=O)C(=O)N1 (stereo not given) [THALIDOMIDE]	5.6	0	REACTIVATION_HVC	5 days - 7 months	3	2	2	0	0	0	0	0	0	0	0	0	
NCCCC(O)(P(=O)(O)O)P(=O)(O)O [ALENDRONIC ACID]			AC_ANTI-ML	2 months - 6 months	2	3				0	0		0	0	0	0	Hepatotoxicity (moderate) ([1]; Liver): 1.6%; Hepatotoxicity (acute) ([2]; Liver): 0%; Hepatotoxicity (cytolytic) ([7]; Liver): 3; Hepatotoxicity (choleostasis) ([8]; Liver): 0; Hepatotoxicity (severe hepatitis) ([9]; Liver): 1; Hepatotoxicity (granulomatous hepatitis) ([12]; Liver): 0
CS(=O)(=O)OCCCCOS(C)(=O)=O [BUSULFAN]	100	6.7	HNR(I/THIOGUANINE) MVO	2 days - 6 years	11	6	3	3	4	0	1	0	42	0	0	0	

Source: ChEMBL document CHEMBL3137667, “[Drug-induced liver injury; fourteenth updated edition of the bibliographic database of liver injuries and related drugs]” (Gastroenterol Clin Biol, 2004)
